Results as given in patent publication US8017637B2, “Inhibitors of cdc phosphatases” (Ipsen Pharma S.A.S., priority 2004, dated 2011).
Values belong to the compound of their own block, whether it stands above or below them.

Assays:
[1] = biological target: T1, purified recombinant enzyme Cdc25-C (MBP-Cdc25C) (Homo sapiens, UniProt P30307); assay: Measurement of the phosphatase activity of the purified recombinant enzyme Cdc25C (OMFP dephosphorylation, fluorescence); format: biochemical; details: OMFP 500 μM, 4 hours at 30° C.
T1 construct: made in house
T1 sequence (P30307 1-473): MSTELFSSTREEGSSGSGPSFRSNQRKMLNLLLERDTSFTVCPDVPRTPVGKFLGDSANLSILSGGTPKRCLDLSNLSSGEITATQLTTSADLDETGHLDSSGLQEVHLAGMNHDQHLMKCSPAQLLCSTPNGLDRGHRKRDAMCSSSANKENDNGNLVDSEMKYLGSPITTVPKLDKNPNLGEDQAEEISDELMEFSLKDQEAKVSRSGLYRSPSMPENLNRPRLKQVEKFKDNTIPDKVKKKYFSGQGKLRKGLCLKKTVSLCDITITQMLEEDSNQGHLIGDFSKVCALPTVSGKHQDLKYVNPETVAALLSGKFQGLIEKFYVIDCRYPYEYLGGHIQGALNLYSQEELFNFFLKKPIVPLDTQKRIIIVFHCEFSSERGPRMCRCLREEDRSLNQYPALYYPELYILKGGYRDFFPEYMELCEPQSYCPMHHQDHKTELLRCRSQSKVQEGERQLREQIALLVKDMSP
Protocol: i) Measurement of the Phosphatase Activity of the Purified Recombinant Enzyme Cdc25C
The phosphatase activity of the protein MBP-Cdc25C is evaluated by the dephosphorylation of 3-O-methylfluorescein-phosphate (OMFP) to 3-O-methylfluorescein (OMF) with a determination of the fluorescence at 475 nm of the reaction product. This test makes it possible to identify inhibitors of the recombinant enzyme cdc25. The preparation of the fusion protein MBP-Cdc25C is described in the Patent Application PCT WO 01/44467.
The reaction is carried out in 384-well plate format at a final volume of 50 μl. The protein MBP-Cdc25C (prepared as described above) is preserved in the following elution buffer: 20 mM Tris-HCl pH 7.4; 250 mM NaCl; 1 mM EDTA; 1 mM of dithiothreitol (DTT); 10 mM maltose. It is diluted to a concentration of 60 μM in the following reaction buffer: 50 mM Tris-HCl pH 8.2; 50 mM NaCl; 1 mM DTT; 20% glycerol. Measurement of the background noise is carried out with the buffer without the addition of the enzyme. The products are tested at decreasing concentrations starting from 40 μM. The reaction is initiated by the addition of an OMFP solution at 500 μM final (prepared extemporaneously from a 12.5 mM stock solution in 100% DMSO (Sigma #M2629)). After 4 hours at 30° C. in a single-use 384-well plate, the fluorescence measured at OD 475 nm is read using a Victor^2 plate reader (EGG-Wallac). The determination of the concentration inhibiting the enzyme reaction by 50% is calculated from three independent experiments. Only the values contained in the linear part of the sigmoid are retained for linear regression analysis.

[2] = tested on: DU-145 lines (human prostate cancer cells); assay: Anti-proliferative activity, WST1 colorimetric test, DU145 cells; format: cell-based; details: 96 hours treatment, up to 10 μM, read-out: IC50 on the cell proliferation of the DU-145 lines
Protocol: (§1) ii) Characterization of Anti-Proliferative Activity:
(§2) By way of example, the effect of a treatment by the compounds of the examples described previously on two lines of human Mia-Paca2 and DU145 cells will be studied. The cell lines DU145 (human prostate cancer cells) and Mia-PaCa2 (human pancreatic cancer cells) were acquired from the American Tissue Culture Collection (Rockville, Md., USA). The cells placed in 80 μl of Dulbecco's Modified Eagle medium (Gibco-Brl, Cergy-Pontoise, France) completed with 10% foetal calf serum inactivated by heating (Gibco-Brl, Cergy-Pontoise, France), 50,000 units/l of penicillin and 50 mg/l streptomycin (Gibco-Brl, Cergy-Pontoise, France), and 2 mM of glutamine (Gibco-Brl, Cergy-Pontoise, France) were seeded on a 96-well plate on day 0. The cells were treated on day 1 for 96 hours at increasing concentrations of each of the compounds to be tested up to 10 μM. At the end of the of this period, quantification of the cell proliferation is evaluated by a colorimetric test based on the cleavage of the tetrazolium salt WST1 by the mitochondrial dehydrogenases in the viable cells leading to the formation of formazan (Boehringer Mannheim, Meylan, France). These tests are carried out in duplicate with 8 determinations per concentration tested. For each compound to be tested, the values included in the linear part of the sigmoid were retained for linear regression analysis and used in order to estimate the inhibitory concentration IC50. The products are solubilized in dimethylsulphoxide (DMSO) at to 10^−2M and finally used in culture with 0.1% DMSO.

[3] = tested on: Mia-Paca2 lines (human pancreatic cancer cells); assay: Anti-proliferative activity, WST1 colorimetric test, Mia-Paca2 cells; format: cell-based; details: MIA PaCa-2, 96 hours treatment, up to 10 μM, read-out: IC50 on the cell proliferation of the Mia-Paca2 lines
Protocol: as §1, §2

- IC50 [1]: ≤ 1 µM
- IC50 [2]: ≤ 10 µM
- melting point: 107 to 108 °C
- IC50 [3]: ≤ 10 µM
Structure (SMILES): CCNC(=O)c1nc2c(s1)C(=O)C=C(NCCCN(C)CCCNC1=CC(=O)c3sc(C)nc3C1=O)C2=O [Example 43, N-ethyl-5-{[3-(methyl{3-[(2-methyl-4,7-dioxo-4,7-dihydro-1,3-benzothiazol-5-yl)amino]propyl}amino)propyl]amino}-4,7-dioxo-4,7-dihydro-1,3-benzothiazole-2-carboxamide]

- IC50 [1]: ≤ 1 µM
- IC50 [2]: ≤ 10 µM
- IC50 [3]: ≤ 10 µM
Structure (SMILES): COc1ccc(CNC(=O)c2nc3c(s2)C(=O)C=C(NCCCN(C)CCCNC2=CC(=O)c4sc(C)nc4C2=O)C3=O)cc1 [Example 45, N-(4-methoxybenzyl)-5-{[3-(methyl{3-[(2-methyl-4,7-dioxo-4,7-dihydro-1,3-benzothiazol-5-yl)amino]propyl}amino)propyl]amino}-4,7-dioxo-4,7-dihydro-1,3-benzothiazole-2-carboxamide]

- IC50 [1]: ≤ 1 µM
- IC50 [2]: ≤ 10 µM
- IC50 [3]: ≤ 10 µM
Structure (SMILES): Cc1nc2c(s1)C(=O)C=C(NCCCN(C)CCCNC1=CC(=O)c3nc(C(=O)N4CCCC4)sc3C1=O)C2=O [Example 44, 5-({3-[(3-{[4,7-dioxo-2-(pyrrolidin-1-ylcarbonyl)-4,7-dihydro-1,3-benzothiazol-6-yl]amino}propyl)(methyl)amino]propyl}amino)-2-methyl-1,3-benzothiazole-4,7-dione]

- IC50 [1]: ≤ 1 µM
Structure (SMILES): COc1ccc2c(c1)CCCN2C(=O)c1nc2c(s1)C(=O)C=C(NCCCN(C)CCCNC1=CC(=O)c3sc(C)nc3C1=O)C2=O [Example 47, 2-[(6-methoxy-3,4-dihydroquinolin-1(2H)-yl)carbonyl]-5-{[3-(methyl{3-[(2-methyl-4,7-dioxo-4,7-dihydro-1,3-benzothiazol-5-yl)amino]propyl}amino)propyl]amino}-1,3-benzothiazole-4,7-dione]

- IC50 [1]: ≤ 1 µM
- IC50 [2]: ≤ 10 µM
- IC50 [3]: ≤ 10 µM
Structure (SMILES): Cc1nc2c(s1)C(=O)C(NCCCN(C)CCCNC1=CC(=O)c3nc(-c4cc(F)ccc4F)oc3C1=O)=CC2=O [Example 53, 2-(2,5-difluorophenyl)-6-{[3-(methyl{3-[(2-methyl-4,7-dioxo-4,7-dihydro-1,3-benzothiazol-6-yl)amino]propyl}amino)propyl]amino}-1,3-benzoxazole-4,7-dione]

- IC50 [1]: ≤ 1 µM
- IC50 [3]: ≤ 10 µM
Structure (SMILES): Cc1nc2c(s1)C(=O)C=C(NCCCN(C)CCCNC1=CC(=O)c3nc(-c4cc(F)ccc4F)oc3C1=O)C2=O [Example 51, 2-(2,5-difluorophenyl)-6-{[3-(methyl{3-[(2-methyl-4,7-dioxo-4,7-dihydro-1,3-benzothiazol-5-yl)amino]propyl}amino)propyl]amino}-1,3-benzoxazole-4,7-dione]

- IC50 [1]: ≤ 1 µM
- IC50 [2]: ≤ 10 µM
- IC50 [3]: ≤ 10 µM
Structure (SMILES): COc1ccc(C(=O)N2CCN(C(=O)c3nc4c(s3)C(=O)C=C(NCCCN(C)CCCNC3=CC(=O)c5sc(C)nc5C3=O)C4=O)CC2)cc1 [Example 48, 2-{[4-(4-methoxybenzoyl)piperazin-1-yl]carbonyl}-5-{[3-(methyl{3-[(2-methyl-4,7-dioxo-4,7-dihydro-1,3-benzothiazol-5-yl)amino]propyl}amino)propyl]amino}-1,3-benzothiazole-4,7-dione]

- IC50 [1]: ≤ 1 µM
- IC50 [2]: ≤ 10 µM
- IC50 [3]: ≤ 10 µM
Structure (SMILES): Cc1nc2c(s1)C(=O)C=C(NCCCN(C)CCCNC1=CC(=O)c3scnc3C1=O)C2=O [Example 50, 5-({3-[{3-[(4,7-dioxo-4,7-dihydro-1,3-benzothiazol-5-yl)amino]propyl}(methyl)amino]propyl}amino)-2-methyl-1,3-benzothiazole-4,7-dione]

- IC50 [1]: ≤ 1 µM
- melting point: 152 to 153 °C
- IC50 [3]: ≤ 10 µM
Structure (SMILES): CN(CCCNC1=CC(=O)c2sc(C(=O)N3CCN(C(=O)C4CCCO4)CC3)nc2C1=O)CCCNC1=CC(=O)c2sc(C(=O)N3CCN(C(=O)C4CCCO4)CC3)nc2C1=O (stereo not shown) [Example 28, 5.5′-[(methylimino)bis(propane-3,1-diylimino)]bis(2-{[4-(tetrahydrofuran-2-ylcarbonyl)piperazin-1-yl]carbonyl}-1,3-benzothiazole-4,7-dione)]

The next lines start with the compound.

Structure (SMILES): CN(CCCNC1=CC(=O)c2nc(-c3cc(F)ccc3F)oc2C1=O)CCCNC1=CC(=O)c2nc(-c3cc(F)ccc3F)oc2C1=O [Example 8, 6.6′-[(methylimino)bis(propane-3,1-diylimino)]-bis[2-(2,5-difluorophenyl)-1,3-benzoxazole-4,7-dione]]
- IC50 [1]: ≤ 1 µM
- IC50 [2]: ≤ 10 µM
- melting point: 209 to 210 °C
- IC50 [3]: ≤ 10 µM

Structure (SMILES): CN(CCCNC1=CC(=O)c2nc(-c3ccc(F)cc3)oc2C1=O)CCCNC1=CC(=O)c2nc(-c3ccc(F)cc3)oc2C1=O [Example 15, 6.6′-[(methylimino)bis(propane-3,1-diylimino)]-bis[2-(4-fluorophenyl)-1,3-benzoxazole-4,7-dione]]
- IC50 [1]: ≤ 1 µM
- IC50 [2]: ≤ 10 µM
- melting point: 204 to 205 °C
- IC50 [3]: ≤ 10 µM

Structure (SMILES): CN(CCCNC1=CC(=O)c2sc(C(=O)N3CCN(C(=O)N4CCOCC4)CC3)nc2C1=O)CCCNC1=CC(=O)c2sc(C(=O)N3CCN(C(=O)N4CCOCC4)CC3)nc2C1=O [Example 27, 5.5′-[(methylimino)bis(propane-3,1-diylimino)]bis(2-{[4-(morpholin-4-ylcarbonyl)piperazin-1-yl]carbonyl}-1,3-benzothiazole-4,7-dione)]
- IC50 [1]: ≤ 1 µM
- melting point: 157 to 158 °C
- IC50 [3]: ≤ 10 µM

Structure (SMILES): Cc1nc2c(s1)C(=O)C=C(NCCCCCNC1=CC(=O)c3sc(C)nc3C1=O)C2=O [Example 4]
- IC50 [1]: ≤ 1 µM
- IC50 [2]: ≤ 10 µM
- IC50 [3]: ≤ 10 µM

Structure (SMILES): Cc1nc2c(s1)C(=O)C=C(NCCOCCNC1=CC(=O)c3sc(C)nc3C1=O)C2=O [Example 3, 5.5′-[oxybis(ethane-2,1-diylimino)]bis(2-methyl-1,3-benzothiazole-4,7-dione)]
- IC50 [1]: ≤ 1 µM
- IC50 [2]: ≤ 10 µM
- IC50 [3]: ≤ 10 µM

Structure (SMILES): Cc1nc2c(s1)C(=O)C(NCCN(C)CCNC1=CC(=O)c3nc(C)sc3C1=O)=CC2=O [Example 6, 6.6′-[(methylimino)bis(ethane-2,1-diylimino)]bis(2-methyl-1,3-benzothiazole-4,7-dione)]
- IC50 [1]: ≤ 5 µM
- IC50 [2]: ≤ 10 µM
- IC50 [3]: ≤ 10 µM

Structure (SMILES): Cc1nc2c(s1)C(=O)C(Br)=C(NCCCN(C)CCCNC1=C(Br)C(=O)c3sc(C)nc3C1=O)C2=O [Example 17, 5.5′-[(methylimino)bis(propane-3,1-diylimino)]bis(6-bromo-2-methyl-1,3-benzothiazole-4,7-dione)]
- IC50 [1]: ≤ 1 µM
- IC50 [2]: ≤ 10 µM
- IC50 [3]: ≤ 10 µM

Structure (SMILES): CN(CCCN(C)C1=CC(=O)c2nc(-c3cc(F)ccc3F)oc2C1=O)CCCN(C)C1=CC(=O)c2nc(-c3cc(F)ccc3F)oc2C1=O [Example 23, 6.6′-{(methylimino)bis[propane-3,1-diyl(methylimino)]}bis[2-(2,5-difluorophenyl)-1,3-benzoxazole-4,7-dione]]
- IC50 [1]: ≤ 5 µM
